Assay results published in US12661410B2, “Compounds for targeted degradation of RET” (C4 Therapeutics, Inc., priority 2020, dated 2026).
Changes are numbered by the printed parent chain. Where two headings read alike, the source gives them in different places.

Columns and labels:
RET (658-1114) = biological target: T1, RET (658-1114) (Homo sapiens, UniProt P07949); assay: HiBiT-Degradation, RET wild-type degradation assay (Nano-Glo HiBiT Lytic), 293T.144 cells; assay type: cell-based; details: for Emax / DC50: 6.0 hours
T1 construct: 658-1114; expressed in transfected cells; host or cells: 293T.144 (293T cells, generated in-house)
T1 sequence (P07949 658-1114): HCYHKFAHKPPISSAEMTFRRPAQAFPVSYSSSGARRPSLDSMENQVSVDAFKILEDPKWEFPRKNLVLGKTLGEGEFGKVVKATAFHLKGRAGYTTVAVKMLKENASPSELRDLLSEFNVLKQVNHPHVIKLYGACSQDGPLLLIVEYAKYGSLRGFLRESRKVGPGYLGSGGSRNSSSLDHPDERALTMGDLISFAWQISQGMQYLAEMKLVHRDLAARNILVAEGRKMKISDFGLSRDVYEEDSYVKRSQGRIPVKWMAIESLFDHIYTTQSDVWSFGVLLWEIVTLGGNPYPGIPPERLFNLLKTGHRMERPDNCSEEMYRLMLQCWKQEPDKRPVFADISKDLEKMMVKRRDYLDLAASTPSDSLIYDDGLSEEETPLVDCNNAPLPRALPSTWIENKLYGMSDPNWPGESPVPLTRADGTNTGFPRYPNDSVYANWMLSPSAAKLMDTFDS
Method in brief: (§1)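 HEK293T lines expressing HiBiT-tagged RET kinase domain, wild-type (293T.144) or G810R (293T.165), treated 6 h in duplicate, 11-point half-log series from 10 μM top. Lytic HiBiT luminescence read; DC50 and Emax (% protein remaining) from dose-response curves.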

RET(KD: 658-1114 G810R) = biological target: T2, RET(KD: 658-1114 G810R) (Homo sapiens, UniProt P07949, G810R); assay: HiBiT-Degradation, RET G810R degradation assay (Nano-Glo HiBiT Lytic), 293T.165 cells; assay type: cell-based; details: for Emax / DC50: 6.0 hours
T2 construct: 658-1114; expressed in transfected cells; host or cells: 293T.165 (293T cells, generated in-house)
T2 sequence (P07949 658-1114 G810R): T1 sequence (P07949 658-1114) with G153R
Method in brief: as §1

[1] = % remaining protein, read-out: 293T.144 RET (658-1114) 6.0 hours (Emax)
[2] = half-maximal degradation concentration, read-out: 293T.144 RET (658-1114) 6.0 hours (DC50)
[3] = % remaining protein, read-out: 293T.165 RET(KD: 658-1114 G810R) 6.0 hours (Emax)
[4] = half-maximal degradation concentration, read-out: 293T.165 RET(KD: 658-1114 G810R) 6.0 hours (DC50)
[5] = HiBiT-Degradation, read-out: 293T.144 RET (658-1114) 6.0 hours (DC50)
[6] = HiBiT-Degradation, read-out: 293T.144 RET (658-1114) 6.0 hours (Emax)
[7] = HiBiT-Degradation, read-out: 293T.165 RET(KD: 658-1114 G810R) 6.0 hours (DC50)
[8] = RET wild-type, read-out: HiBiT-Degradation 293T.144 RET (658-1114) 6.0 hours (DC50)
[9] = RET wild-type, read-out: HiBiT-Degradation 293T.144 RET (658-1114) 6.0 hours (Emax)
[10] = RET G810R, read-out: HiBiT-Degradation 293T.165 RET(KD: 658-1114 G810R) 6.0 hours (DC50)
[11] = RET G810R, read-out: HiBiT-Degradation 293T.165 RET(KD: 658-1114 G810R) 6.0 hours (Emax)

Row | Structure (SMILES) | 293T.144 RET (658-1114) 6.0 hours (IP) [nM] (RET (658-1114)) | Emax (RET (658-1114); [1]) | DC50 (RET (658-1114); [2]) | 293T.165 RET(KD: 658-1114 G810R) 6.0 hours (IP) [nM] (RET(KD: 658-1114 G810R)) | Emax (RET(KD: 658-1114 G810R); [3]) | DC50 (RET(KD: 658-1114 G810R); [4]) | 293T.144 RET (658-1114) 6.0 hours (IP) [nM] (RET (658-1114); HiBiT-Degradation) | DC50 (RET (658-1114); [5]) | Emax (RET (658-1114); [6]) | 293T.165 RET(KD: 658-1114 G810R) 6.0 hours (Emax) (RET(KD: 658-1114 G810R); HiBiT-Degradation) | 293T.165 RET(KD: 658-1114 G810R) 6.0 hours (IP) [nM] (RET(KD: 658-1114 G810R); HiBiT-Degradation) | DC50 (RET(KD: 658-1114 G810R); [7]) | HiBiT-Degradation 293T.144 RET (658-1114) 6.0 hours (IP) [nM] (RET (658-1114); RET wild-type) | DC50 (RET (658-1114); [8]) | Emax (RET (658-1114); [9]) | HiBiT-Degradation 293T.165 RET(KD: 658-1114 G810R) 6.0 hours (IP) [nM] (RET(KD: 658-1114 G810R); RET G810R) | DC50 (RET(KD: 658-1114 G810R); [10]) | Emax (RET(KD: 658-1114 G810R); [11])
1 | Cn1nc(N2CCC(=O)NC2=O)c2ccc(N3CCN([C@H]4CC[C@H](n5cc(-c6cn7ncc(C#N)c7c(-c7ccc(N8C[C@H]9COC[C@@H](C8)N9Cc8ccccn8)nc7)n6)cn5)CC4)CC3)c(F)c21 [Compound 208, 6-[1-[4-[4-[3-(2,4-dioxohexahydropyrimidin-1-yl)-7-fluoro-1-methyl-indazol-6-yl]piperazin-1-yl]cyclohexyl]pyrazol-4-yl]-4-[6-[(1S,5R)-9-(2-pyridylmethyl)-3-oxa-7,9-diazabicyclo[3.3.1]nonan-7-yl]-3-pyridyl]pyrazolo[1,5-a]pyrazine-3-carbonitrile] | ++++ (<50 nM = ++++) | < 30% | < 50 nM | ++++ (<50 nM = ++++) | < 30% | < 100 nM | – | – | – | – | – | – | – | – | – | – | – | –
2 | N#Cc1cnn2cc(-c3cnn(C4CCN(CCN5CCC(c6ccc(NC7CCC(=O)NC7=O)cc6F)CC5)CC4)c3)cc(-c3ccc(N4CCN(Cc5ccccn5)CC4)nc3)c12 (centres unmarked) [Compound 12, 6-(1-(1-(2-(4-(4-((2,6-Dioxopiperidin-3-yl)amino)-2-fluorophenyl)piperidin-1-yl)ethyl)piperidin-4-yl)-1H-pyrazol-4-yl)-4-(6-(4-(pyridin-2-ylmethyl)piperazin-1-yl)pyridin-3-yl)pyrazolo[1,5-a]pyridine-3-carbonitrile] | – | – | – | – | < 50% | < 100 nM | ++++ (< 50 nM = ++++) | < 50 nM | < 30% | +++ (<50% = +++) | ++++ (< 50 nM = ++++) | < 100 nM | – | – | – | – | – | –
3 | CC(C)NC(=O)C1(C)CCN(c2ccc(-c3cc(-c4cnn(CCCCCCN5CCC(c6ccc7c(N8CCC(=O)NC8=O)nn(C)c7c6)CC5)c4)cn4ncc(C#N)c34)cn2)CC1 [Compound 82, 1-[5-[3-cyano-6-[1-[6-[4-[3-(2,4-dioxohexahydropyrimidin-1-yl)-1-methyl-indazol-6-yl]-1-piperidyl]hexyl]pyrazol-4-yl]pyrazolo[1,5-a]pyridin-4-yl]-2-pyridyl]-N-isopropyl-4-methyl-piperidine-4-carboxamide] | – | – | – | – | < 30% | < 100 nM | – | – | – | – | – | – | ++++ (< 50 nM = ++++) | < 50 nM | < 30% | ++++ (< 50 nM = ++++) | < 100 nM | < 30%
4 | COc1ccc(CC2(OC)CCN(c3ccc(-c4nc(-c5cnn([C@H]6CC[C@@H](N7CCN(c8ccc(NC9CCC(=O)NC9=O)cc8F)CC7)CC6)c5)cn5ncc(C#N)c45)cn3)CC2)cn1 (single isomer, unassigned) [Compound 147, 6-(1-((1s, 4s)-4-(4-(4-((2,6-Dioxopiperidin-3-yl)amino)-2-fluorophenyl)piperazin-1-yl)cyclohexyl)-1H-pyrazol-4-yl)-4-(6-(4-methoxy-4-((6-methoxypyridin-3-yl)methyl)piperidin-1-yl)pyridin-3-yl)pyrazolo[1,5-a]pyrazine-3-carbonitrile] | ++++ (<50 nM = ++++) | < 30% | < 50 nM | ++++ (<50 nM = ++++) | < 30% | < 100 nM | – | – | – | – | – | – | – | – | – | – | – | –
5 | CN(Cc1ccc(-c2cn3ncc(C#N)c3c(-c3ccc(N4CCN(Cc5ccccn5)CC4)nc3)n2)cc1)C(=O)CN1CCC(c2ccc(NC3CCC(=O)NC3=O)cc2)CC1 (centres unmarked) [Compound 83, N-[[4-[3-cyano-4-[6-[4-(2-pyridylmethyl)piperazin-1-yl]-3-pyridyl]pyrazolo[1,5-a]pyrazin-6-yl]phenyl]methyl]-2-[4-[4-[(2,6-dioxo-3-piperidyl)amino]phenyl]-1-piperidyl]-N-methyl-acetamide] | – | – | – | – | < 50% | < 100 nM | – | – | – | – | – | – | ++++ (< 50 nM = ++++) | < 50 nM | < 30% | ++++ (< 50 nM = ++++) | < 100 nM | < 50%
6 | CC(C)Oc1ccc(CN2[C@@H]3COC[C@H]2CN(c2ccc(-c4nc(-c5cnn([C@H]6CC[C@H](N7CCN(c8c(F)cc(NC9CCC(=O)NC9=O)cc8F)CC7)CC6)c5)cn5ncc(C#N)c45)cn2)C3)cn1 (mixture of isomers) [Compound 213, 6-[1-[4-[4-[4-[(2,6-dioxo-3-piperidyl)amino]-2,6-difluoro-phenyl]piperazin-1-yl]cyclohexyl]pyrazol-4-yl]-4-[6-[rac-(1R,5S)-9-[(6-isopropoxy-3-pyridyl)methyl]-3-oxa-7,9-diazabicyclo[3.3.1]nonan-7-yl]-3-pyridyl]pyrazolo[1,5-a]pyrazine-3-carbonitrile] | ++++ (<50 nM = ++++) | < 30% | < 50 nM | +++ (<100 nM = +++) | < 30% | < 100 nM | – | – | – | – | – | – | – | – | – | – | – | –
7 | CCC1(C(=O)NC(C)C)CCN(c2ccc(-c3nc(-c4ccc(C5CCN(C(=O)CN6CC(c7ccc(NC8CCC(=O)NC8=O)cc7F)C6)CC5)cc4)cn4ncc(C#N)c34)cn2)CC1 (centres unmarked) [Compound 174, 1-[5-[3-cyano-6-[4-[1-[2-[3-[4-[(2,6-dioxo-3-piperidyl)amino]-2-fluoro-phenyl]azetidin-1-yl]acetyl]-4-piperidyl]phenyl]pyrazolo[1,5-a]pyrazin-4-yl]-2-pyridyl]-4-ethyl-N-isopropyl-piperidine-4-carboxamide] | ++++ (<50 nM = ++++) | < 30% | < 50 nM | ++++ (<50 nM = ++++) | < 50% | < 100 nM | – | – | – | – | – | – | – | – | – | – | – | –
8 | N#Cc1cnn2cc(-c3ccc(N4CCN(C(=O)CN5CCC(c6ccc(NC7CCC(=O)NC7=O)cc6)CC5)CC4)cc3)cc(-c3ccc(N4CCC(Nc5ccccc5)CC4)nc3)c12 (centres unmarked) [Compound 20, 6-(4-(4-(2-(4-(4-((2,6-Dioxopiperidin-3-yl)amino)phenyl)piperidin-1-yl)acetyl)piperazin-1-yl)phenyl)-4-(6-(4-(phenylamino)piperidin-1-yl)pyridin-3-yl)pyrazolo[1,5-a]pyridine-3-carbonitrile] | – | – | – | – | < 30% | < 100 nM | ++++ (< 50 nM = ++++) | < 50 nM | < 30% | ++++ (< 30% = ++++) | +++ (<100 nM = +++) | < 100 nM | – | – | – | – | – | –
